From patent US20250320290A1, “METHODS FOR TRIGGERING SAFETY KILLING […] USING A CD47-SIRPalpha BLOCKADE AGENT” (Sana Biotechnology, Inc., priority 2020, published 2025)
Entries after “also recorded” stand apart in the source; their conditions may differ.

Legend:
[1] = system: human HIP iPSCs (HSVTk clone 1-B10); experiment: HsVtk kill switch: s.c. HIP-HsVtk iPSCs in NSG mice; type: in vivo
Description: (§1) Subcutaneous. Healthy male NSG mice were anesthetized via isoflurane inhalation anesthesia in a knockdown chamber. The anesthetized mice were removed from the chamber and placed in a supine position. The injection site (right inguinal area) was sprayed with 70% EtOH. Cells were injected subcutaneously proximal to the inguinal region.
(§2) Mice were anesthetized via isoflurane inhalation anesthesia and injected intraperitoneally (IP) with 250 μl luciferin (45.45 mg/ml). The mice were then positioned in a nose cone in the bioluminescence chamber (anesthesia was maintained at 1.5% with 500 ml oxygen/min). The mice were imaged for 180 seconds. A circle was drawn around the region of interest (ROI) giving a reading of photons/sec of emitted light.
Human HIP iPSCs (HSVTk clone 1-B10) were injected subcutaneously into Group 1 NSG mice. Ganciclovir LD (50 mg/kg) treatment was performed daily intraperitoneally. […] Mice were checked during a 44D follow up. Group 1 mice treatment was as follows: 1×10^6 hiPSCs HIP HSVtk clone 1-B10 luc+ in diluted MG, S.C.; treatment was 50 mg/kg/day Ganciclovir, IP (DO).

[2] = system: human HIP iPSCs (clone 15; no kill switch); experiment: s.c. HIP iPSCs without kill switch in NSG mice treated with pro-drug; type: in vivo
Description: as §1, §2
Human HIP iPSCs (clone 15; no kill switch) were injected subcutaneously into Group 6 NSG mice. Flucytosine HD (500 mg/kg) treatment was administered daily intraperitoneally. As shown in FIG. 81A-B, human HIP iPSC survival appeared to be impaired by flucytosine HD although cells had no kill switch. The group was expanded for data validation (FIG. 81C-D and FIG. 81E-F). […]
Human HIP iPSCs (clone 15; no kill switch) were injected subcutaneously into Group 6 NSG mice. Ganciclovir HD (75 mg/kg) treatment was administered daily intraperitoneally starting Day 0. […]

[3] = intravenous, cited from earlier work
[4] = system: human HIP iPSCs (CyD clone 2G11); experiment: Cytosine deaminase kill switch: s.c. HIP-CyD iPSCs in NSG mice; type: in vivo
Description: as §1, §2
Human HIP iPSCs (CyD clone 2G11) were injected subcutaneously into Group 1 NSG mice. Flucytosine LD (200 mg/kg) treatment was administered daily intraperitoneally. […] Group 1 mice treatment was as follows: 1×10^6 hiPSC HIP CyD clone 2G11 in diluted MG, S.C.; treatment=200 mg/kg/day Flucytosine, IP (DO).

human HIP iPSCs [5] = experiment: In vitro killing of human HIP iPSCs by human NK cells and macrophages with anti-CD47 antibody; type: cell-based; settings: 100 μg/ml antibody
[6] = system: HIP CD19CAR-T cells (B2M−/−, CIITA−/−, TRAC−/−, CD19-specific CAR-CD47 T cells); experiment: Innate killing (NK cells, macrophages) by real-time cell analysis, HIP CAR-T cells; type: cell-based, human; settings: pretreated with CD47 blocking antibody, E:T 1:1
Description: Briefly, T-cells were plated in CD19^+ tumor cell specific media. After cell index value reached 0.7, human NK cells or human macrophages were added with an E:T ratio of 1:1 with human IL-2 for NK cells and without IL-2 for macrophages. […] Data were standardized and analyzed with the real-time cell analysis instrument software.
After about 48 hours, T-cells were collected and stained with components of a live/dead cell viability staining assay. Briefly, cells were stained with calcein AM and ethidium homodimer-1 according to the manufacturer's protocol. The analysis was performed by flow cytometry and the results were expressed as percentage of dead cells.

human HIP iPSCs [7] = experiment: Subcutaneous human HIP iPSCs in NSG mice with adoptive transfer of human NK cells, BLI; type: in vivo
Description: as §1
The mice were then positioned in a nose cone in the bioluminescence chamber (anesthesia was maintained at 1.5% with 500 ml oxygen/min). The mice were imaged for 180 seconds. A circle was drawn around the region of interest (ROI) giving a reading of photons/sec of emitted light.
IP dosing. The antibody (100 μl) was injected into the peritoneal cavity from the ventral surface by piercing the skin and muscle layers.
SC dosing. Mice were anesthetized via isoflurane inhalation anesthesia and placed in a supine position. The injection site (right inguinal area) was sprayed with 70% EtOH and the antibody (100 μl) was injected into the area of the implanted cells.

mock transfected T cells = experiment: Innate killing by real-time cell analysis, mock transfected T cells; type: cell-based, human; settings: in the presence of the antibody

Nc1nc(O)c2ncn(COC(CO)CO)c2n1 [Ganciclovir]
time to killing of HIP-HsVtk iPSCs ([1]; HD 75 mg/kg daily intraperitoneally from D0): 12 to 16 days
time to killing of HIP-HsVtk iPSCs after start of treatment ([1]; HD 75 mg/kg daily intraperitoneally from Day 13): ≤ 7 days
time to killing of HIP-HsVtk iPSCs ([1]; LD 50 mg/kg daily intraperitoneally from D0): 12 to 24 days
time to killing of HIP-HsVtk iPSCs after start of treatment ([1]; LD 50 mg/kg daily intraperitoneally from Day 13): ≤ 7 days
benefit of HD ([1]; treatment from D0): slightly beneficial
benefit of HD compared to LD ([1]; treatment from Day 13): No obvious benefit
impact on HIP iPSCs without kill switch ([2]; Ganciclovir HD 75 mg/kg daily intraperitoneally from Day 0): no killing; also recorded: no impact

TTI-621: fusion protein of N-terminal V domain of human SIRPα fused to human IgG1 Fc region (SEQ ID NO:133)
maximum tolerated dose (MTD) ([3]; monotherapy, relapsed/refractory hematologic malignancies and selected solid tumors): 0.2 mg/kg
tolerability ([3]; phase 1): well tolerated

Nc1[nH]c(=O)ncc1F [Flucytosine]
time to killing of HIP-CyD iPSCs ([4]; HD 500 mg/kg daily intraperitoneally from D0): 16 to 32 days
time to killing of HIP-CyD iPSCs after starting treatment ([4]; HD 500 mg/kg daily intraperitoneally from Day 13): 3 to 11 days
time to killing of HIP-CyD iPSCs ([4]; LD 200 mg/kg daily intraperitoneally from D0): 16 to 44 days
time to killing of HIP-CyD iPSCs after starting treatment ([4]; LD 200 mg/kg daily intraperitoneally from Day 13): 3 to 11 days
benefit of HD as compared to LD ([4]; treatment from D0): No major benefit
benefit of HD compared to LD ([4]; treatment from Day 13): No benefit
survival of HIP iPSCs without kill switch ([2]; Flucytosine HD 500 mg/kg daily intraperitoneally): impaired

B1: magrolimab: anti-CD47 antibody magrolimab (Hu5F9-G4) (Forty Seven, Inc.; Gilead Sciences, Inc.) (antibody, chains of the INN, looked up, V domains shown)
VH: QVQLVQSGAEVKKPGASVKVSCKASGYTFTNYNMHWVRQAPGQRLEWMGTIYPGNDDTSYNQKFKDRVTITADTSASTAYMELSSLRSEDTAVYYCARGGYRAMDYWGQGTLVTVSS
VL: DIVMTQSPLSLPVTPGEPASISCRSSQSIVYSNGNTYLGWYLQKPGQSPQLLIYKVSNRFSGVPDRFSGSGSGTDFTLKISRVEAEDVGVYYCFQGSHVPYTFGQGTKLEIK
killing of human HIP iPSCs by human NK cells (human HIP iPSCs [5]): killing
killing of human HIP iPSCs by human macrophages (human HIP iPSCs [5]): killing
killing of HIP CAR-T cells by macrophages and NK cells on CD47 blocking [6]: susceptible to macrophage and NK cell killing
killing of HIP CAR-T cells by macrophages and NK cells on CD47 blocking ([6]; listed as macrolimab): induced killing
killing of HIP iPSCs (human HIP iPSCs [7]; magrolimab D0-D10, 5×10^4 iPSCs, 1×10^6 NK cells): killing of HIP iPSCs
re-appearance of iPSCs (human HIP iPSCs [7]; magrolimab stopped after D10, 6-month follow up): didn't re-appear
killing of mock transfected T cells by NK cell and macrophages (mock transfected T cells): not killed
